# Experimental data published in patent publication EP4740948A1 (Dong Wha Pharm. Co., Ltd., priority 2023, dated 2025).
# Key:
# [1] = molecular target: EZH1 (Homo sapiens, UniProt Q92800); assay: AlphaLISA enzyme activity inhibition, EZH1; assay type: biochemical
# How it was run: (§1)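 Enzyme inhibition rate was calculated relative to DMSO from AlphaLISA signal, with acceptor beads added after a 2 h methylation reaction and donor beads 1 h later. Each enzyme, EZH1 or EZH2, was pre-mixed with compound (final 5 nM or 10 nM) in Tris buffer pH 8.0 before histone H3 peptide and SAM initiated the reaction.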
# [2] = molecular target: EZH2 (Homo sapiens, UniProt Q15910); assay: AlphaLISA enzyme activity inhibition, EZH2; assay type: biochemical; conditions: for inhibition at 0.005 µM / Enzyme inhibition % EZH2: 5nM test substance; for Enzyme inhibition % EZH2: 0.005 µM
# How it was run: as §1
# [3] = system: Lovo cells; assay: Cancer cell proliferation inhibition (Cell Counting Kit-8), colorectal cancer cell line; assay type: cell-based; conditions: 1000 nM, cultured seven to 11 days; for inhibition at 1 µM: Homo sapiens, LoVo, 264 h, read-out: % inhibition rate LoVo
# How it was run: (§2)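 CCK-8 readout after 7–11 day culture with 1000 nM compound; seeding 100–1,000 cells/well in 10% FBS medium (RPMI1640, McCoy's 5a, L-15 or DMEM). % inhibition vs untreated control.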
# [4] = system: G401 cells; assay: Cancer cell proliferation inhibition (Cell Counting Kit-8), rhabdoid tumor cell line; assay type: cell-based; conditions: 1000 nM, cultured seven to 11 days; for inhibition at 1 µM: Homo sapiens, G-401, 264 h, read-out: % inhibition rate G401; for % inhibition rate G401: 1 µM
# How it was run: (§3)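 Single 1000 nM dose of test substance, applied to cells seeded at 100–1,000 per well in 10% FBS medium, then culture for seven to 11 days. CCK-8 read-out; inhibition rate expressed as percent relative to untreated control.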
# [5] = system: MKN-45 cells; assay: Cancer cell proliferation inhibition (Cell Counting Kit-8), gastric cancer cell line; assay type: cell-based; conditions: 1000 nM, cultured seven to 11 days; for inhibition at 1 µM: Homo sapiens, MKN-45, 264 h, read-out: % inhibition rate MKN -45
# How it was run: as §3
# [6] = system: SW-13 cells; assay: Cancer cell proliferation inhibition (Cell Counting Kit-8), adrenal cancer cell line; assay type: cell-based; conditions: 1000 nM, cultured seven to 11 days; for inhibition at 1 µM: Homo sapiens, SW13, 264 h, read-out: % inhibition rate SW-13
# How it was run: as §2
# [7] = system: MIA-PaCa-2 cells; assay: Cancer cell proliferation inhibition (Cell Counting Kit-8), pancreatic cancer cell line; assay type: cell-based; conditions: 1000 nM, cultured seven to 11 days; for inhibition at 1 µM: Homo sapiens, MIA PaCa-2, 264 h, read-out: % inhibition rate MIA-Paca2
# How it was run: as §2
# [8] = system: NCI-H1299 cells; assay: Cancer cell proliferation inhibition (Cell Counting Kit-8), lung cancer cell line; assay type: cell-based; conditions: 1000 nM, cultured seven to 11 days; for inhibition at 1 µM: Homo sapiens, NCI-H1299, 264 h, read-out: % inhibition rate NCI-H129 9
# How it was run: as §2
# EZH1, sequence (Q92800 whole entry, species assumed): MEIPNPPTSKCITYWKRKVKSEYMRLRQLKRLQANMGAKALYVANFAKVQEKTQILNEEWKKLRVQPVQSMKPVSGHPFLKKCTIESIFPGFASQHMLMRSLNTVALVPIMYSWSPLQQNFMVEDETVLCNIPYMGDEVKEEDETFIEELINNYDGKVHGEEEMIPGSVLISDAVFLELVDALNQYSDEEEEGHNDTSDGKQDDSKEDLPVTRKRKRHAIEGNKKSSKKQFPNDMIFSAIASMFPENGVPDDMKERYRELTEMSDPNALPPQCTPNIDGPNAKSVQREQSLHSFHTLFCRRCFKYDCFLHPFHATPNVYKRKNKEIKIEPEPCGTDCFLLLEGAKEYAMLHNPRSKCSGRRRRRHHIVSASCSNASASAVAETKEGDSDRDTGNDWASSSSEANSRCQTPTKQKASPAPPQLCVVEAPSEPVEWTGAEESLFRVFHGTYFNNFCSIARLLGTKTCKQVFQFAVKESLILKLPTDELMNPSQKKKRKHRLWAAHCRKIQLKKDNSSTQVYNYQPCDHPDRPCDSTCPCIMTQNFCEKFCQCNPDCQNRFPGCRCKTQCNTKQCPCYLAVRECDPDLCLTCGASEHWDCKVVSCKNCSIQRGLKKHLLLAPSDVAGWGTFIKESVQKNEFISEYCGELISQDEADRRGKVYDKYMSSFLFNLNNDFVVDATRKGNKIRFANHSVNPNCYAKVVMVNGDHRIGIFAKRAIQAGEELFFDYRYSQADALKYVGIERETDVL
# EZH1, sequence (O75530 whole entry partner, species assumed): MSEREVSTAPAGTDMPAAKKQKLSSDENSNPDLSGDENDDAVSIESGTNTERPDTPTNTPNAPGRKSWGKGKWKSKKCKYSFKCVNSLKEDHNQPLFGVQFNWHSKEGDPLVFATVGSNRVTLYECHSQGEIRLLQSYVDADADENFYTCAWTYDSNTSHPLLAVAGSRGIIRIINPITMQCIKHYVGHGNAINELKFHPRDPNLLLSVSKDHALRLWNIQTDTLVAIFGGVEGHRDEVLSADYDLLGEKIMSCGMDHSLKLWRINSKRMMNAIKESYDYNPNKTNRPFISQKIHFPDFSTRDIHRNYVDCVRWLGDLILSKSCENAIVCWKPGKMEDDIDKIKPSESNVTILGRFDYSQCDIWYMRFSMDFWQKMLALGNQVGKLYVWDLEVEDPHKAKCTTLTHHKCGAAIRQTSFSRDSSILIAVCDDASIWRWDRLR
# EZH1, sequence (Q15022 whole entry partner, species assumed): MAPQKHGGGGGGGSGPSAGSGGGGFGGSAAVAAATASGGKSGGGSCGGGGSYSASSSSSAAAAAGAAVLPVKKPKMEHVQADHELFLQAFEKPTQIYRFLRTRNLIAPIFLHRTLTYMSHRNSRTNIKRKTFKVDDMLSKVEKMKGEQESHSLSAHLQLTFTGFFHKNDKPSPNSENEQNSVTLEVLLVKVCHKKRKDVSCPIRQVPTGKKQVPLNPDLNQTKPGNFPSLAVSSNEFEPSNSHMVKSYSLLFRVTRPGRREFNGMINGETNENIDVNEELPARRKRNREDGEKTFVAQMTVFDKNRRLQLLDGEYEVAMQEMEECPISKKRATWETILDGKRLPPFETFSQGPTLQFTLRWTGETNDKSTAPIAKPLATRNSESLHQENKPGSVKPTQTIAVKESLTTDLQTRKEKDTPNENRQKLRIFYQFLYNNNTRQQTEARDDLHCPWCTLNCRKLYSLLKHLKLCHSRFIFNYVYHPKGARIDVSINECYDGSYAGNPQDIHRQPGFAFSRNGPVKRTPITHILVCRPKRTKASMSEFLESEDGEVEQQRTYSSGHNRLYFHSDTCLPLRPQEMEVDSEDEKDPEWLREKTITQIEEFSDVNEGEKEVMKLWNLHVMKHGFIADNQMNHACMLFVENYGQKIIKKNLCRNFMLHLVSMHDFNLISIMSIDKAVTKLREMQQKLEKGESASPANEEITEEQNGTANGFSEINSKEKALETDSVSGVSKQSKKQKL
# EZH2, sequence (Q15910 whole entry, species assumed): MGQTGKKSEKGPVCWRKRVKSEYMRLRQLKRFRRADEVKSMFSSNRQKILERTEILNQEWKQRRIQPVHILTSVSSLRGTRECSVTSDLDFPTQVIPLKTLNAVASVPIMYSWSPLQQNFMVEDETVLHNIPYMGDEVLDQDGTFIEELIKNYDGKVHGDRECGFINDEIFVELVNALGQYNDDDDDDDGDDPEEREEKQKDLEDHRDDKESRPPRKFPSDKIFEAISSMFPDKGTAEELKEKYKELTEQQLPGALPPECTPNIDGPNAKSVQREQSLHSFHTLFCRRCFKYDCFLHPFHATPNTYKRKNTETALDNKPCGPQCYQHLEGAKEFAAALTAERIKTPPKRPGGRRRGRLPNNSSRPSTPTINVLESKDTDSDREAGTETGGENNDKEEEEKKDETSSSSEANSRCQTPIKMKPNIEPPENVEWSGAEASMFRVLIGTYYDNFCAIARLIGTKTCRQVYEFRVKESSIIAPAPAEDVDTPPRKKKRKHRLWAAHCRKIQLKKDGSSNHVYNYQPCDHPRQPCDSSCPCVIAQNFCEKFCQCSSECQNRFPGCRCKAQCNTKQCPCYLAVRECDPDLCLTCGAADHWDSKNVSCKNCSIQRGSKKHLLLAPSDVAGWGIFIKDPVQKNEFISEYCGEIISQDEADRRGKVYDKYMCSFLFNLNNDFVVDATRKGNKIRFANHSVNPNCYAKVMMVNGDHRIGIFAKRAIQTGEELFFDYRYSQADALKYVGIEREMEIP
# EZH2, sequence (O75530 whole entry partner, species assumed): as the sequence (O75530 whole entry partner, species assumed) above
# EZH2, sequence (Q15022 whole entry partner, species assumed): as the sequence (Q15022 whole entry partner, species assumed) above
SMILES,inhibition at 0.005 µM ([1]; 5nM test substance),inhibition at 0.01 µM ([1]; 10nM test substance),inhibition at 0.005 µM [2],inhibition at 0.01 µM ([2]; 10nM test substance),inhibition at 1 µM [3],inhibition at 1 µM [4],inhibition at 1 µM [5],inhibition at 1 µM [6],inhibition at 1 µM [7],inhibition at 1 µM [8],Enzyme inhibition % EZH2 [2],% inhibition rate G401 [4],"Enzyme inhibition % EZH1 ([1]; 5nM test substance, 0.005 µM)",% inhibition rate LoVo [3],% inhibition rate MKN -45 [5],% inhibition rate SW-13 [6],% inhibition rate MIA-Paca2 [7],% inhibition rate NCI-H129 9 [8]
"CCN1CCC(C2(C)Oc3c(-c4ccc(N(C)CC)nc4)cc(C(=O)NCc4c(SC)cc(C)[nH]c4=O)c(C)c3O2)CC1 (single isomer, unassigned) [Compound 89, 7-(6-(ethyl(methyl)amino)pyridin-3-yl)-2-(1-ethylpiperidin-4-yl)-2,4-dimethyl-N-((6-methyl-4-(methylthio)-2-oxo-1,2-dihydropyridin-3-yl)methyl)benzo[d][1,3]dioxole-5-carboxamide]",40%,71%,99.5%,100%,≥ 70%,≥ 70%,≤ 30%,30 to 70%,≤ 30%,≤ 30%,,,,,,,,
"CSc1cc(C)[nH]c(=O)c1CNC(=O)c1cc(-c2ccc(N3C[C@@H](C)O[C@@H](C)C3)nc2)c2c(c1C)OC(C)([C@H]1CC[C@H](N(C)CC(F)(F)F)CC1)O2 (single isomer, unassigned) [Compound 107]",39.3%,,,,≥ 70%,,≤ 30%,≤ 30%,≤ 30%,≤ 30%,41.7%,+++ (+++: ≥70%),,,,,,
"CSc1cc(C)[nH]c(=O)c1CNC(=O)c1cc(-c2ccc(N3C[C@@H](C)O[C@@H](C)C3)nc2)c2c(c1C)OC(C)([C@H]1CC[C@H](N(C)CC(F)(F)F)CC1)O2 (single isomer, unassigned) [Compound 108]",,,,,,,,,,,4.3%,+ (+: ≤30%),20.4%,+++ (+++: ≥70%),+ (+: ≤30%),+ (+: ≤30%),+ (+: ≤30%),+ (+: ≤30%)
"CSc1cc(C)[nH]c(=O)c1CNC(=O)c1cc(-c2ccc(N3C[C@@H](C)O[C@@H](C)C3)nc2)c2c(c1C)OC(C)([C@H]1CC[C@H](N(C)C)CC1)O2 (stereo partly drawn) [Compound 1, 2-(trans-4-(dimethylamino)cyclohexyl)-7-(6-((2S,6R)-2,6-dimethylmorpholino)pyridin-3-yl)-2,4-dimethyl-N-((6-methyl-4-(methylthio)-2-oxo-1,2-dihydropyridin-3-yl)methyl)benzo[d][1,3]dioxole-5-carboxamide]",89.1%,,98.7%,,30 to 70%,30 to 70%,≤ 30%,30 to 70%,≤ 30%,≤ 30%,,,,,,,,
CSc1cc(C)[nH]c(=O)c1CNC(=O)c1cc(-c2cnc(N3C[C@@H](C)O[C@@H](C)C3)nc2)c2c(c1C)OC(C)([C@H]1CC[C@H](N(C)C)CC1)O2 (some centres unmarked) [Compound 2],82%,,92.9%,,30 to 70%,30 to 70%,≤ 30%,30 to 70%,≤ 30%,≤ 30%,,,,,,,,
"CSc1cc(C)[nH]c(=O)c1CNC(=O)c1cc(-c2ccc(N3C[C@@H](C)O[C@@H](C)C3)nc2)c2c(c1C)OC(C)([C@H]1CC[C@H](N(C)CC(F)(F)F)CC1)O2 (stereo partly drawn) [Compound 20, 7-(6-((2S,6R)-2,6-dimethylmorpholino)pyridin-3-yl)-2,4-dimethyl-2-(trans-4-(methyl(2,2,2-trifluoroethyl)amino)cyclohexyl)-N-((6-methyl-4-(methylthio)-2-oxo-1,2-dihydropyridin-3-yl)methyl)benzo[d][1,3]dioxole-5-carboxamide]",34.3%,,26.1%,,≥ 70%,30 to 70%,30 to 70%,≤ 30%,≤ 30%,≤ 30%,,,,,,,,
"CSc1cc(C)[nH]c(=O)c1CNC(=O)c1cc(-c2cnc(N3C[C@@H](C)O[C@@H](C)C3)nc2)c2c(c1C)OC(C)([C@H]1CC[C@H](N(C)CC(F)(F)F)CC1)O2 (stereo partly drawn) [Compound 23, 7-(2-((2S,6R)-2,6-dimethylmorpholino)pyrimidin-5-yl)-2,4-dimethyl-2-(trans-4-(methyl(2,2,2-trifluoroethyl)amino)cyclohexyl)-N-((6-methyl-4-(methylthio)-2-oxo-1,2-dihydropyridin-3-yl)methyl)benzo[d][1,3]dioxole-5-carboxamide]",31.4%,,34.2%,,≥ 70%,30 to 70%,≤ 30%,≤ 30%,≤ 30%,≤ 30%,,,,,,,,
"COCCN(C)[C@H]1CC[C@H](C2(C)Oc3c(-c4ccc(N5C[C@@H](C)O[C@@H](C)C5)nc4)cc(C(=O)NCc4c(SC)cc(C)[nH]c4=O)c(C)c3O2)CC1 (stereo partly drawn) [Compound 24, 7-(6-((2S,6R)-2,6-dimethylmorpholino)pyridin-3-yl)-2-(trans-4-((2-methoxyethyl)(methyl)amino)cyclohexyl)-2,4-dimethyl-N-((6-methyl-4-(methylthio)-2-oxo-1,2-dihydropyridin-3-yl)methyl)benzo[d][1,3]dioxole-5-carboxamide]",35.1%,,98.6%,,≥ 70%,30 to 70%,≤ 30%,30 to 70%,≤ 30%,≤ 30%,,,,,,,,
"COCCN(C)[C@H]1CC[C@H](C2(C)Oc3c(-c4cnc(N5C[C@@H](C)O[C@@H](C)C5)nc4)cc(C(=O)NCc4c(SC)cc(C)[nH]c4=O)c(C)c3O2)CC1 (stereo partly drawn) [Compound 25, 7-(2-((2S,6R)-2,6-dimethylmorpholino)pyrimidin-5-yl)-2-(trans-4-((2-methoxyethyl)(methyl)amino)cyclohexyl)-2,4-dimethyl-N-((6-methyl-4-(methylthio)-2-oxo-1,2-dihydropyridin-3-yl)methyl)benzo[d][1,3]dioxole-5-carboxamide]",82.4%,,97.6%,,≥ 70%,30 to 70%,≤ 30%,30 to 70%,≤ 30%,≤ 30%,,,,,,,,
"CSc1cc(C)[nH]c(=O)c1CNC(=O)c1cc(-c2ccc(N3C[C@@H](C)O[C@@H](C)C3)nc2)c2c(c1C)OC(C)([C@H]1CC[C@H](N(C)C[C@H](C)O)CC1)O2 (stereo partly drawn) [Compound 29, 7-(6-((2S,6R)-2,6-dimethylmorpholino)pyridin-3-yl)-2-(trans-4-(((S)-2-hydroxypropyl)(methyl)amino)cyclohexyl)-2,4-dimethyl-N-((6-methyl-4-(methylthio)-2-oxo-1,2-dihydropyridin-3-yl)methyl)benzo[d][1,3]dioxole-5-carboxamide]",91.6%,,98.3%,,≥ 70%,30 to 70%,≤ 30%,30 to 70%,≤ 30%,≤ 30%,,,,,,,,
"CCCOCCN(C)[C@H]1CC[C@H](C2(C)Oc3c(-c4ccc(N5C[C@@H](C)O[C@@H](C)C5)nc4)cc(C(=O)NCc4c(SC)cc(C)[nH]c4=O)c(C)c3O2)CC1 (stereo partly drawn) [Compound 30, 7-(6-((2S,6R)-2,6-dimethylmorpholino)pyridin-3-yl)-2,4-dimethyl-2-(trans-4-(methyl(2-propoxyethyl)amino)cyclohexyl)-N-((6-methyl-4-(methylthio)-2-oxo-1,2-dihydropyridin-3-yl)methyl)benzo[d][1,3]dioxole-5-carboxamide]",80.4%,,83.1%,,≥ 70%,30 to 70%,30 to 70%,30 to 70%,≤ 30%,≤ 30%,,,,,,,,
"COC(CN(C)[C@H]1CC[C@H](C2(C)Oc3c(-c4ccc(N5C[C@@H](C)O[C@@H](C)C5)nc4)cc(C(=O)NCc4c(SC)cc(C)[nH]c4=O)c(C)c3O2)CC1)OC (stereo partly drawn) [Compound 31, 2-(trans-4-((2,2-dimethoxyethyl)(methyl)amino)cyclohexyl)-7-(6-((2S,6R)-2,6-dimethylmorpholino)pyridin-3-yl)-2,4-dimethyl-N-((6-methyl-4-(methylthio)-2-oxo-1,2-dihydropyridin-3-yl)methyl)benzo[d][1,3]dioxole-5-carboxamide]",67.3%,,75.6%,,≥ 70%,30 to 70%,30 to 70%,30 to 70%,≤ 30%,≤ 30%,,,,,,,,
